Test results taken from ChEMBL document CHEMBL1143332, “Syntheses of tricyclic pyrones and pyridinones and protection of Abeta-peptide induced MC65 neuronal cell death” (Bioorg Med Chem Lett, 2009).
The source made the active and inactive calls. The calls are words filed in the database; no cut-off is given here.

tested on: not listed separately; experiment: (§1) Cell protective activity in human MC65 cells assessed as protection against amyloid beta precursor protein C99-induced neuronal cell death after 3 days by MTT assay; format: functional, cell-based; conditions: 72 h

Structure (SMILES) | EC50 [µM]
COc1ccc(Cn2c(C)cc3c(c2=O)C=C2CC[C@H]([C@@H](C)Cn4cnc(N)c5ncnc4-5)C[C@@H]2O3)cc1 | 0.35
Cc1cc2c(c(=O)o1)C=C1CC[C@H]([C@@H](C)Cn3cc(C#N)c(N)n3)C[C@@H]1O2 | 8.3
Cc1cc2c(c(=O)o1)C=C1CC[C@H]([C@@H](C)Cn3cnc4c(N)ncnc43)C[C@@H]1O2 | 3
Cc1cc2c(c(=O)o1)C=C1CC[C@H]([C@@H](C)CSc3ncccn3)C[C@@H]1O2 | 1.38
C=C(Cn1cnc(N)c2ncnc1-2)[C@H]1CCC2=Cc3c(cc(C)oc3=O)O[C@H]2C1 | 1.95
Cc1cc2c(c(=O)o1)C=C1CC[C@H]([C@@H](C)Cn3cnc4cnc(N)nc43)C[C@@H]1O2 | 0.86
C=C(C)[C@@H]1CCc2cnc3cc(C)oc(=O)c3c2C1 | 2.49
C=C(C)[C@H]1CCC2=Cc3c(cc(C)n(Cc4ccc(OC)cc4)c3=O)O[C@H]2C1 | 1.25
Cc1cc2c(c(=O)o1)C=C1CC[C@H]([C@@H](C)Cn3cnc4c(Cl)ncnc43)C[C@@H]1O2 | 0.93
Cc1cc2c(c(=O)o1)C=C1CC[C@H]([C@@H](C)Cn3cnc(N)c4ncnc3-4)C[C@@H]1O2 | 0.31
Cc1cc2c(c(=O)o1)C=C1CC[C@H]([C@@H](C)Cn3cc(C)c(=O)[nH]c3=O)C[C@@H]1O2 | 6.92
Cc1cc2c(c(=O)o1)C=C1CC[C@H]([C@@H](C)COc3nccc(N)n3)C[C@@H]1O2 | 2.94

tested on: neuronal; experiment: as §1; format: functional, cell-based; conditions: not given

Structure (SMILES) | Activity
Cc1cc2c(c(=O)o1)C=C1CC[C@H]([C@@H](C)Cn3ccc(N)nc3=O)C[C@@H]1O2 | inactive
C=C(C)[C@H]1CCc2cc3c(=O)oc(C)cc3nc2C1 | inactive
CC(=O)Nc1nc2c(ncn2C[C@H](C)[C@H]2CCC3=Cc4c(cc(C)oc4=O)O[C@H]3C2)c(=O)[nH]1 | inactive
